The nature of data set [1]: H2O2-triggered deprotection of model compounds (conversion to acid), analytical HPLC. Conditions: for percent conversion to acid: incubation at RT; for deprotection, conversion to the acid: excess of H2O2 (27 equiv) in buffer, after 4 h of incubation. The class given is physicochemical. The protocol: To be effective prodrugs must have good water solubility and be rapidly converted to the active drug under the desired stimulus. These two aspects were evaluated first in model systems. […] An authentic HPLC trace of each was obtained and was then compared to a trace obtained after 1 h and 4 h of incubation. […] The stability of each compound was tested at physiological pH (100 mM TRIS-HCl, pH 7.2) as well as in the presence of glutathione (9 equiv).
Injections consisted of 100 μL, of a 50 μM.

Data set [2] in a line: Stability of model compounds in simulated physiological conditions, analytical HPLC. Conditions: for stability: HEPES, RT, 24 h; for stability at physiological pH: 100 mM TRIS-HCl; for stability in the presence of glutathione: glutathione (9 equiv). The class given is physicochemical.
The subject of another data set is COX-1. As to the kind of experiment: COX inhibition, commercially available fluorescent assay (COX-1). Format: biochemical. Conditions: COX-1 isoform. As to the method:
The efficacy of the prodrug to inhibit its target was also evaluated. For proIBU a commercially available fluorescent assay was utilized. ProIBU was tested against both isoforms of the COX enzyme. […] Table 1 and FIG. 3.

Data set [3] is described as follows: Hydrolytic stability of prodrugs in buffer and with biologically relevant nucleophiles, analytical HPLC.
Protocol: Initially, an authentic HPLC trace was obtained of proIBU and proMMPi, and a second trace was obtained after incubating in buffer (100 mM TRIS-HCl, pH 7.4) for 24 h at 37° C. Each prodrug was incubated in the same conditions, with the addition of 20 equivalents of lysine, serine and glutathione, all in distinct trials.
All compounds were initially dissolved in DMSO and further diluted with specified buffer. Injections consisted of 100 μl, of a 1 mM solution.

Each structure is given as a SMILES string.

Results on 9 molecules are retold here after patent US9598383B2, “Reactive oxygen species-based prodrugs” (The Regents of the University of California, priority 2013, dated 2017).

Turning to `O=C1OCCN1C(=O)c1ccccc1` [Compound 1, 3-benzoyloxazolidin-2-one], the “percent conversion to acid” value was 14.6% in data set [1] (1 h) and 25.6% in data set [1] (4 h). The stability in data set [2] (pH 7.2 + GSH (9 equiv)), in data set [2] (pH 7.2) and in data set [2] (pH 8.0) was more than 99% each time.
With `O=C1SCCN1C(=O)c1ccccc1` [Compound 2, 3-benzoylthiazolidin-2-one], the entries for the “percent conversion to acid” value in data set [1] (1 h) and in data set [1] (4 h) were 13.6% and 37.8%, respectively. The results for the stability in data set [2] (pH 7.2 + GSH (9 equiv)), in data set [2] (pH 7.2) and in data set [2] (pH 8.0) were more than 99%, 88.6% and 82.5%, respectively.
Regarding `O=C(c1ccccc1)N1CCOC1=S` [Compound 3, Phenyl(2-thioxooxazolidin-3-yl)methanone], the “deprotection, conversion to the acid” value in data set [1] is reported as “full deprotection”. Moreover, the “percent conversion to acid” value in data set [1] (1 h) is reported as 44.7%; in data set [1] (4 h), more than 99%. For the same molecule, the “stability at physiological pH” value in data set [2] (pH 7.2) is “poorer stability”. Besides, the stability in data set [2] (pH 7.2 + GSH (9 equiv)) is 59.5%; in data set [2] (pH 7.2), 95.5%; in data set [2] (pH 8.0), 41.2%. Further, in data set [2], the “stability in the presence of glutathione” value is listed as “poorer stability”.
On to `O=C(c1ccccc1)N1CCSC1=S` [Compound 4, Phenyl(2-thioxothiazolidin-3-yl)methanone], for which the “deprotection, conversion to the acid” value in data set [1] is “full deprotection”. In addition, the “percent conversion to acid” value in data set [1] (1 h) was 48.5%; in data set [1] (4 h), more than 99%. Moreover, in data set [2] (pH 7.2), the “stability at physiological pH” value is on record as “poorer stability”. Also, the values for the stability in data set [2] (pH 7.2 + GSH (9 equiv)), in data set [2] (pH 7.2) and in data set [2] (pH 8.0) were 77.6%, 57.0% and 54.8%, respectively. The “stability in the presence of glutathione” value in data set [2] is “poorer stability”.
On to `O=C(Cc1ccccc1)N1CCOC1=O` [Compound 5, 3-(2-phenylacetyl)oxazolidin-2-one], for which the “percent conversion to acid” value in data set [1] (1 h) and in data set [1] (4 h) was less than 1% each time. Also, the stability in data set [2] (pH 7.2 + GSH (9 equiv)) is listed as 86.3%; in data set [2] (pH 7.2), more than 99%; in data set [2] (pH 8.0), 94.5%.
Turning to `O=C(Cc1ccccc1)N1CCSC1=O` [Compound 6, 3-(2-phenylacetyl)thiazolidin-2-one], the “percent conversion to acid” value is 23.3% in data set [1] (1 h) and 67.8% in data set [1] (4 h). Moreover, the stability in data set [2] (pH 7.2 + GSH (9 equiv)), in data set [2] (pH 7.2) and in data set [2] (pH 8.0) was more than 99% throughout.
For the molecule `O=C(Cc1ccccc1)N1CCOC1=S` [Compound 7, 2-phenyl-1-(2-thioxooxazolidin-3-yl)ethan-1-one], the “deprotection, conversion to the acid” value in data set [1] is listed as “full deprotection”. In addition, the “percent conversion to acid” value in data set [1] (1 h) is 81.6%; in data set [1] (4 h), more than 99%. For the same molecule, the “stability at physiological pH” value in data set [2] (pH 7.2) is on record as “poorer stability”. The stability in data set [2] (pH 7.2 + GSH (9 equiv)) is given as 45.7%; in data set [2] (pH 7.2), 54.6%; in data set [2] (pH 8.0), 24.4%. In addition, the “stability in the presence of glutathione” value in data set [2] is on record as “poorer stability”.
Consider `O=C(Cc1ccccc1)N1CCSC1=S` [Compound 8, 2-phenyl-1-(2-thioxothiazolidin-3-yl)ethan-1-one], for which the “deprotection, conversion to the acid” value in data set [1] is listed as “full deprotection”. Also, the figures for the “percent conversion to acid” value in data set [1] (1 h) and in data set [1] (4 h) were 87.6% and more than 99%, respectively. Besides, the “stability at physiological pH” value in data set [2] (pH 7.2) is “poorer stability”. For the same molecule, the stability is 39.5% in data set [2] (pH 7.2 + GSH (9 equiv)), 32.5% in data set [2] (pH 7.2) and less than 1% in data set [2] (pH 8.0). For the same molecule, the “stability in the presence of glutathione” value in data set [2] is “poorer stability”.
Consider `CC(C)Cc1ccc(C(C)C(=O)N2CCSC2=O)cc1` (stereo not drawn) [proIBU, 3-(2-(4-isobutylphenyl)propanoyl)thiazolidin-2-one], for which the “inhibition of COX enzyme” value with COX-1 was “little to no inhibition”. The hydrolytic stability was more than 99% in data set [3] (100 mM TRIS-HCl, pH 7.4, 24 h at 37° C., 20 equivalents of glutathione); more than 99% in data set [3] (100 mM TRIS-HCl, pH 7.4, 24 h at 37° C., 20 equivalents of lysine); more than 99% in data set [3] (100 mM TRIS-HCl, pH 7.4, 24 h at 37° C., 20 equivalents of serine); more than 99% in data set [3] (buffer (100 mM TRIS-HCl, pH 7.4), 24 h at 37° C.).
